# Measured values taken from patent US20150224058A1, “FORMULATIONS OF FLIBANSERIN” (Sprout Pharmaceuticals Inc., priority 2008, published 2015).
# Assay: Solubility of flibanserin in aqueous media
# Assay type: physicochemical
# Conditions: aqueous buffer; in phosphate buffer at pH 5.0
# From the text: This marginal solubility at higher pH-values of flibanserin makes it difficult to develop extended release dosage forms or in some case even immediate release dosage forms for the following reasons. There is a natural pH gradient from the acidity of the stomach where the pH of physiological fluids are typically around 1-2, through the weakly acidic duodenum to the virtually neutral environment of the small intestine where the pH is in the range of 5-8. There are however cases of non-acidic stomach conditions due to either low production of hydrochloric acid caused by the physiology of the patients (this percentage increases form about 2-10% in young patients to about 10 to 40% in elderly patients) or by coadministration of antacids such as basic agents, H2-blockers or proton pump inhibitors. In those cases dissolution of even immediate release formulations (IRE) may be incomplete in the stomach and absorption might be incomplete or at least delayed.
# Within the meaning of the present invention, supersaturation occurs if the active ingredient remains in dissolved status at concentrations far above its saturation solubility in the same aqueous system. […]
structure (smiles),measurement,value
"O=c1[nH]c2ccccc2n1CCN1CCN(c2cccc(C(F)(F)F)c2)CC1 [Flibanserin, 1,3-dihydro-1-[2-[4-[3-(trifluoromethyl)phenyl]-1-piperazinyl]ethyl]-2H-benzimidazole-2-one]",solubility,10 µg/mL
